We go through one compound from patent US11891386B2, “Indole compounds and their use” (ARIAGEN, INC., priority 2017, dated 2024).

One data set concerns mouse hepatocytes. The experiment in a line: Hepatocyte intrinsic clearance assay, mouse hepatocytes. The settings on record: Mouse Hepatocytes. The class given is in vitro ADME. The source says: (§1) The liver is an important organ in the body for drug metabolism. This Example describes hepatocyte intrinsic clearance assays using both human and mouse hepatocytes to evaluate the metabolic stability of the indole compounds disclosed herein. The parameters measured include t1/2 (half-life), CLint (intrinsic clearance), and EH (hepatic extraction ratio).
(§2) Testosterone (Lot FE111011-01) was obtained from Cerilliant (Round Rock, TX). 7-hydroxycoumarin (Lot 11631ED) was obtained from Sigma Aldrich (St. Louis, MO). Cryopreserved human hepatocytes pooled from ten donor males (X008001), cryopreserved male IRC/CD-1 mouse hepatocytes (M005052), INVITROGRO HI Medium (incubation), and INVITROGRO HT Medium (thawing) were obtained from Bioreclamation IVT (Baltimore, MD). All solvents were obtained from commercial sources and used without further purification.
(§3) Each test compound was prepared as a 1 mM stock solution in DMSO. A 2 μM solution of test compound and positive controls were prepared in INVITROGRO HI Medium (incubation). These solutions were pre-warmed in a sterile incubator set to maintain 37° C., 5% CO2, and 98% humidity. Cryopreserved hepatocytes were prepared at a concentration of 2×10^6 living cells/mL in incubation media and pre-warmed in the incubator. The compound solutions and hepatocyte mixtures were then combined at a ratio of 1:1 (v:v). The final volume of the reaction mixture was 750 μL, containing 1 μM test compound (10 μM for 7-hydroxycoumarin) and […]. The reaction mixture was placed in the incubator on a plate shaker. After 0, 15, 30, 60, 90, and 120 minutes of incubation, 100 μL of reaction mixtures were removed from the incubation plate and mixed with 150 μL of ice-cold acetonitrile in a designated well of a 96-well crash plate. The 96-well crash plate was placed on ice for 15 min, and samples were centrifuged (3,600 RPM, 10 min, 4° C.) to precipitate protein. The supernatants were diluted 1:1 (v:v) with water containing 0.15 μM verapamil and/or 1 μM tolbutamide (internal standards for positive and negative modes, respectively) in a 96-well shallow injection plate. This plate was sealed for LC-MS analysis. All measurements were done in duplicate.
(§4) The residual compound remaining (% R) was determined from LC-MS peak areas by comparison to the zero time point. Metabolic half-life (t1/2) and intrinsic clearance (CLint) values were calculated from the slope of the plot of ln (% R) vs. time and the concentration of hepatocytes present in the incubation. Percent remaining at 60 minutes was calculated by plugging in the 60 minute value into the slope equation generated by the percent remaining time points.
(§5) In vivo hepatic clearance CLH was calculated using the well stirred liver model according to the following equation:
(§6) [formula] where QH is the total liver blood flow, fu is unbound fraction of the drug, and CL′int is defined as follows: CL′int=CLint×(10^6 cells/g of liver weight)×(g liver weight/kg of body weight). In the first approximation, used in this study, fu=1.
(§7) Hepatic extraction ratio EH was calculated using the following equation:
(§8) [formula] Corresponding physiological parameters used in calculations for all species are shown below in Table 5.

Assay in data set [1]: as above
The class given is in vitro ADME. The settings on record: male, IRC/CD-1, cryopreserved mouse hepatocytes; Mouse Hepatocytes, 1 μM test compound.
Text: as §1, §2, §3, §4, §5, §6, §7, §8

What is called half-life is the time in which the quantity being followed falls by half. A higher half-life goes with slow loss. For the compound `COC(=O)c1csc(C(=O)c2c[nH]c3ccc(Cl)cc23)n1` [ARI-055, methyl 2-(5-chloro-1H-indole-3-carbonyl)thiazole-4-carboxylate], the “CLint (μL/min/10^6 ells)” value with mouse hepatocytes (1 μM test compound) was 5.1 μL/min/10^6 ells. The “EH (%) hepatic extraction ratio” value with mouse hepatocytes (well stirred liver model, fu=1) worked out at 23%. Moreover, the half-life at 1 μM in data set [1] amounted to 135 min.
